According to patent publication US10905777B2, “Systems and methods for nucleic acid expression in vivo” (DNARx, priority 2015, dated 2021):

Experiments:
luciferase [1] = test: Mouse lung luciferase activity after IV DNA vector delivery; assay type: in vivo; conditions: mice, day 7
Procedure: Lung was homogenized with 500 ul of 1× Lysis buffer (Promega, Wis.). The homogenate was centrifuged at 3000×g at 4C for 10 min. and the supernatant collected. Luciferase activity was assayed using 20 μl of supernatant and 100 μl of Luciferase reagent for 10 seconds using a GloMax® Luminometer (Promega, Wis.).
In each case, cationic liposome injection was followed two minutes later by IV injection of 40 μg of an mCMV-EF1-luciferase, CPG-free, single cassette, DNA vector. […]

luciferase [2] = test: Mouse spleen luciferase levels after IV PEI:EF-1 Luc DNA complexes with drug pre-injection; assay type: in vivo; conditions: mice; day 1; IP drug two hours prior to IV PEI:DNA (12.5 μg); amlexanox 200 μg, chloroquine 1 mg, SAHA 200 μg, tofacitinib 300 μg per mouse
Rituximab = test: Serum Rituximab ELISA in mice after sequential injection of Rituximab DNA vector; assay type: in vivo; conditions: 24 hours, IP pre-treatment (VPA 15 or 2 mg/kg, Theo 30 or 15 mg/kg), 1050 nmoles DexP liposomes, 75 ug DNA, Dex
Procedure: Mice were bled and serum isolated as for G-CSF. Rituximab levels were measured using an Immunoguide ELISA obtained from Eagle Biosciences, and performed according to instructions. […] .
. […] Numbered plasmids (in FIG. 30) were codon-optimized versions of the original, CpG-free but not codon optimized Rituximab DNA sequence.
. […] Thus, significant Rituximab serum levels can be produced by either dual- or single-cassette, 2A peptide-containing DNA vectors.
. Mock-injected mice received LR only without lipid or DNA. Serum levels of Rituximab protein and ALT were assayed 24 hrs later.

human factor IX = test: Human Factor IX ELISA in mice; conditions: 24 hrs, IP pre-treatment (VPA 2 mg/kg, Theo 30 mg/kg), 1500 nmoles DexP DOTAP SUV, 60 ug factor IX vector, Dex
Procedure: In this Example, three mice were injected per group. […] This was followed two minutes later by a single IV injection of 60 ug of a codon optimized, EF-1-driven single cassette DNA vector encoding the human factor IX cDNA (see constructs in FIGS. 38 and 44). […] Where indicated, animals were also pretreated by IP injection of 2 mg/kg Valproic Acid (VPA) or 30 mg/kg Theophylline (Theo). […] Each mouse was bled as for G-CSF. Blood was collected into tubes containing Potassium EDTA or Sodium Citrate to prevent coagulation and centrifuged to obtain plasma. An AssayPro ELISA specific to human Factor IX was used according to manufacturer's instructions to measure Factor IX expression.

human G-CSF = test: Serum human G-CSF ELISA in mice after sequential IV cationic liposome then CPG-free DNA vector injection; assay type: in vivo; conditions: IP 2 hours before and 2 hours after 900 nmol DOTAP SUV then 70 ug DNA, dexamethasone 40 mg/kg, Tofacitinib 15 mg/kg
Procedure: Three to five mice were injected per group.
Each mouse was anesthetized and then bled via the submandibular vein. Serum was then isolated from whole blood and human G-CSF levels measured in pg/ml, as performed strictly according to the manufacturer's specifications, using an R and D systems human G-CSF ELISA.
Five mice were injected per group. […] Serum hG-CSF levels were assessed beginning at day seven after IV injection, and at seven-day intervals thereafter.
Sera were collected from groups of four mice at either day 6 or 14 following sequential, IV injection of 800 nmoles of pure DOTAP MLV cationic liposomes, followed two minutes later by IV injection of 40 μg either an EF1-luciferase—EF1-hGCSF (2 expression cassette) or an EF1-hGCSF (1 expression cassette), CPG-free, single plasmid DNA vector.
Sera were collected from groups of four mice at day 1 following sequential, IV injection of buffer alone (control), 1000 nmoles of pure DOTAP SUV cationic liposomes, alone or co-injected with 1000 nmol of neutral MLV, followed two minutes later by IV injection of 120 μg an EF1-luciferase—EF1-hGCSF (2 expression cassette), CPG-free, single plasmid DNA vector or 1400 nmoles of pure DOTAP SUV cationic liposomes, alone or co-injected with 1000 nmol of neutral MLV, followed two minutes later by IV injection of 100 μg of EF1-luciferase—EF1-hGCSF DNA. […]

[3] = tested on: CD20-expressing human Raji B cells; test: FACS binding to Raji cells; assay type: cell-based; conditions: anti-human IgG-PE, serum six weeks after injection
Procedure: In this Example, Raji cells (1 million/sample) were incubated with mouse serum samples or recombinant Rituximab (50 ng/ml) for 1 hr at 4C, in FACS binding buffer containing EDTA and 0.5% BSA. Following washes, samples were incubated with fluorescently labeled secondary antibody (anti-human IgG-PE) for 30 min, washed and analyzed using an Accuri flow cytometer. Between 3500-5000 events were recorded for each sample. The experiment was repeated twice with similar results.

[4] = in vivo; cited from earlier work
[5] = drug with 800 nmoles DOTAP MLV (L-arginine 2 mg/kg, colchicine 0.01 mg/kg, dexamethasone 1 mg/kg) then 40 μg single cassette mCMV-EF1-luciferase
[6] = drug with 800 nmoles DOTAP MLV then 40 μg dual cassette EF1-luciferase—EF1-hGCSF

**Q.** With `N=C(N)NCCC[C@H](N)C(=O)O` [L-arginine] as the molecule, how does the “luciferase activity in the lung vs DOTAP MLV alone (control)” value (luciferase [1]; [5]) read?
**A.** The value was “failed to increase gene expression levels”.

**Q.** And the “luciferase activity in the lung vs DOTAP MLV alone (control)” value (luciferase [1]; [6])?
**A.** The value was “either lower than or comparable to controls”.

**Q.** With `O=C(CCCCCCC(=O)Nc1ccccc1)NO` [SAHA, suberanilohydroxamic acid] as the molecule, how does the “spleen gene expression (luciferase) levels” value (shortened to “spleen gene expression”) (luciferase [2]) read?
**A.** The value was “increased gene expression levels”.

**Q.** Which results are given for `Cn1c(=O)c2[nH]cnc2n(C)c1=O` [Theophylline]?
**A.** serum Rituximab levels (Rituximab): significantly increased; serum human factor IX levels (human factor IX): significantly higher

**Q.** Which “spleen gene expression” value (luciferase [2]) does the source give for `CC(C)c1ccc2oc3nc(N)c(C(=O)O)cc3c(=O)c2c1` [amlexanox] here?
**A.** The value was “increased gene expression levels”.

**Q.** For `CCN(CC)CCCC(C)Nc1ccnc2cc(Cl)ccc12` (centres unmarked) [chloroquine], which “spleen gene expression” value (luciferase [2]) is on record?
**A.** Its value is “increased gene expression levels”.

**Q.** For `COc1cc2c(c(OC)c1OC)-c1ccc(OC)c(=O)cc1[C@@H](NC(C)=O)CC2` [colchicine], which “luciferase activity in the lung vs DOTAP MLV alone (control)” value (luciferase [1]; [5]) is on record?
**A.** Its value is “higher luciferase activity”.

**Q.** For `CCCc1nn(C)c2c(=O)[nH]c(-c3cc(S(=O)(=O)N4CCN(C)CC4)ccc3OCC)nc12` [sildenafil], which “luciferase activity in the lung vs DOTAP MLV alone (control)” value (luciferase [1]; [6]) is on record?
**A.** Its value is “higher luciferase activity”.

**Q.** With `C[C@@H]1CCN(C(=O)CC#N)C[C@@H]1N(C)c1ncnc2[nH]ccc12` [tofacitinib] as the molecule, how does the HuG-CSF protein levels (human G-CSF) read?
**A.** The HuG-CSF protein levels was “did neither”.

**Q.** For `CCCC(CCC)C(=O)O` [valproic acid], which “serum Rituximab levels” value (Rituximab) is on record?
**A.** The value was “significantly increased”.

**Q.** What about the “serum human factor IX levels” value (human factor IX) of the same molecule?
**A.** Its value is “significantly higher”.

**Q.** Which “Mean Fluorescence Intensity” value [3] does the source give for “Recombinant Rituximab: recombinant Rituximab (anti-CD20) protein used as reference” here?
**A.** Its value is 5781.87.

B1: Neupogen: recombinant human G-CSF protein (protein, UniProt P09919 31-207, looked up)
Granulocyte …: TPLGPASSLPQSFLLKCLEQVRKIQGDGAALQEKLVSECATYKLCHPEELVLLGHSLGIPWAPLSSCPSQALQLAGCLSQLHSGLFLYQGLLQALEGISPELGPTLDTLQLDVADFATTIWQQMEELGMAPALQPTQGAMPAFASAFQRRAGGVLVASHLQSFLEVSYRVLRHLAQP
modifications: filgrastim
**Q.** Which “time for serum hG-CSF levels to return to baseline” value [4] does the source give for B1 here?
**A.** The value was “approximately 14 hours”.
